This is an account of results in PubChem BioAssay (NCI).

Molecules are shown by their SMILES. Where “and” joins values, the source holds several entries; their conditions need not be identical. Equal values may be shown once.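 Where inhibition never reached the appropriate level, the endpoint shown equals the highest concentration tested. Otherwise, values were interpolated linearly from a five-concentration, 48-hour dose response in 96-well plates. At the GI50, growth is halved. At the TGI there is no net growth.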

Some test systems named below: ACHN renal; COLO 205 colon; NCI-H226 lung; KM12 colon; SF-539 CNS; RPMI-8226 leukemia; MDA-MB-435; MALME-3M melanoma; HT29 colon; SK-OV-3 ovarian.
What all share (assay): NCI tumour cell line growth inhibition, 48 h

For the molecule `Cc1cc(O)c2c(c1)C(=O)C=CC2=O`, the GI50 with ACHN renal is 4.43 µM and 4 µM; with RPMI-8226 leukemia, 3.29 µM and 0.39 µM; in the assay on MDA-MB-435, 4.8 µM and 1.93 µM; with MALME-3M melanoma it was 10.2 µM and 1.86 µM. Further, the TGI with ACHN renal is 8.57 µM and 15.6 µM; in the assay with COLO 205 colon, 7.97 µM and > 21.2 µM; with NCI-H226 lung, 42.4 µM and 39.2 µM; with KM12 colon, 32.9 µM and 32.5 µM; in the assay on SF-539 CNS it was 31.4 µM and 30.8 µM; with RPMI-8226 leukemia it was 17.9 µM and 3.44 µM. For the same molecule, the TGI was 11.7 µM and 4.25 µM with MDA-MB-435; 23.2 µM and 8.39 µM in the assay with MALME-3M melanoma; 12.3 µM and 21.3 µM in the assay on HT29 colon; over 84.2 µM in the assay with SK-OV-3 ovarian.

Turning to `CCn1cc(C(=O)O)c(=O)c2cc(F)c(N3CCN(S(=O)(=O)c4cccc5ccccc45)CC3)cc21`, the GI50 in the assay on ACHN renal was 2.88 µM; with COLO 205 colon it was 2.02 µM; in the assay with NCI-H226 lung it was 3.71 µM; in the assay with KM12 colon, 2.96 µM; in the assay with SF-539 CNS, 2.43 µM; in the assay on RPMI-8226 leukemia, 2.79 µM. The GI50 was 3.13 µM in the assay with MDA-MB-435, 2.83 µM with MALME-3M melanoma, 3.95 µM with HT29 colon and 3.11 µM in the assay with SK-OV-3 ovarian. Also, the TGI with ACHN renal was over 100 µM; in the assay on COLO 205 colon, 3.91 µM; in the assay on NCI-H226 lung, over 100 µM; in the assay on KM12 colon, 9.2 µM; with SF-539 CNS, 8.53 µM; with RPMI-8226 leukemia it was 9.73 µM. For the same molecule, the TGI is 14.5 µM in the assay on MDA-MB-435, 7.83 µM in the assay with MALME-3M melanoma, over 100 µM with HT29 colon and 13.4 µM in the assay with SK-OV-3 ovarian.

Consider `O=C1NC(=N[C@@H](CO)c2ccccc2)S/C1=C\c1ccc2ncccc2c1`, for which the GI50 with ACHN renal is 3.97 µM; in the assay on COLO 205 colon it was 5.5 µM; in the assay with NCI-H226 lung it was 11.7 µM; in the assay with KM12 colon, 10.8 µM; with SF-539 CNS, 5.86 µM; in the assay with RPMI-8226 leukemia, 8.16 µM. Further, the GI50 in the assay with MDA-MB-435 was 3.65 µM; in the assay with MALME-3M melanoma it was 13.4 µM; with HT29 colon, 6.63 µM; with SK-OV-3 ovarian it was 8.1 µM. Moreover, the TGI in the assay on ACHN renal was over 25 µM; with COLO 205 colon, 15.9 µM; in the assay with NCI-H226 lung, over 25 µM; in the assay with KM12 colon it was over 25 µM; with SF-539 CNS, 22 µM; in the assay on RPMI-8226 leukemia, over 25 µM. Moreover, the TGI in the assay with MDA-MB-435 was 15.3 µM; in the assay with MALME-3M melanoma, over 25 µM; in the assay with HT29 colon, over 25 µM; in the assay on SK-OV-3 ovarian it was over 25 µM.

With `O=C(OCc1ccc2c(Br)cc(Br)c(O)c2n1)c1cc2ccccc2[nH]1`, the GI50 in the assay with ACHN renal was 0.352 µM; with COLO 205 colon, 0.511 µM; in the assay with NCI-H226 lung, 1.42 µM; in the assay with KM12 colon it was 1.52 µM; in the assay on SF-539 CNS it was 0.962 µM; in the assay with RPMI-8226 leukemia, 0.357 µM. The GI50 in the assay on MDA-MB-435 is 0.709 µM; in the assay with MALME-3M melanoma it was 1.38 µM; with HT29 colon it was 0.408 µM; in the assay on SK-OV-3 ovarian it was 6.03 µM. Further, the TGI with ACHN renal stood at 1.27 µM; with COLO 205 colon, 1.84 µM; in the assay on NCI-H226 lung it was 3.11 µM; in the assay with KM12 colon, 3.09 µM; with SF-539 CNS, 2.17 µM; in the assay with RPMI-8226 leukemia it was 1.94 µM. The TGI in the assay with MDA-MB-435 came to 2.08 µM; in the assay on MALME-3M melanoma, 2.77 µM; in the assay on HT29 colon, 1.59 µM; with SK-OV-3 ovarian, 18.6 µM.

On to `OC1(c2ccc(Cl)c(C(F)(F)F)c2)CCN(CCCC(c2ccc(F)cc2)c2ccc(F)cc2)CC1`, for which the GI50 with ACHN renal is 0.87 µM; in the assay with COLO 205 colon, 0.856 µM; in the assay on NCI-H226 lung it was 0.857 µM; in the assay with KM12 colon it was 0.864 µM; in the assay with SF-539 CNS, 0.943 µM; in the assay on RPMI-8226 leukemia, 1.1 µM. Moreover, the GI50 with MDA-MB-435 is 0.819 µM; in the assay on MALME-3M melanoma, 0.934 µM; in the assay on HT29 colon it was 0.739 µM; in the assay on SK-OV-3 ovarian it was 1.31 µM. For the same molecule, the TGI was determined as 1.63 µM in the assay with ACHN renal; 1.57 µM with COLO 205 colon; 1.81 µM in the assay with NCI-H226 lung; 1.62 µM in the assay with KM12 colon; 1.69 µM in the assay with SF-539 CNS; 2.67 µM in the assay with RPMI-8226 leukemia. Moreover, the TGI with MDA-MB-435 came out at 1.53 µM; in the assay with MALME-3M melanoma, 1.74 µM; in the assay on HT29 colon, 1.47 µM; with SK-OV-3 ovarian it was 3.17 µM.

As for `Nc1nc2c(c3cnccc13)C(c1ccc(Cl)c(Cl)c1)Cc1cnccc1-2` (centres undefined), the GI50 was 0.807 µM with ACHN renal; 0.356 µM with COLO 205 colon; 1.23 µM in the assay on NCI-H226 lung; 0.48 µM with KM12 colon; 0.486 µM in the assay on SF-539 CNS; 0.788 µM in the assay with RPMI-8226 leukemia. Besides, the GI50 was 0.241 µM in the assay with MDA-MB-435, 0.915 µM in the assay with MALME-3M melanoma, 0.37 µM with HT29 colon and 0.463 µM with SK-OV-3 ovarian. For the same molecule, the TGI with ACHN renal turned out to be 4.04 µM; in the assay with COLO 205 colon, 1.09 µM; in the assay on NCI-H226 lung it was 3.94 µM; in the assay on KM12 colon, 12.6 µM; with SF-539 CNS it was 4.29 µM; with RPMI-8226 leukemia it was 12.9 µM. For the same molecule, the TGI in the assay with MDA-MB-435 amounted to 0.646 µM; with MALME-3M melanoma, 18.6 µM; with HT29 colon, 3.31 µM; in the assay with SK-OV-3 ovarian, 10.8 µM.

For `CNCc1cccc2c1OCCOCCOCCN(C)S(=O)(=O)c1ccc(cc1)-c1cnc(N)c(n1)C(=O)N2`, the GI50 in the assay with ACHN renal is 0.468 µM; with COLO 205 colon it was 0.775 µM; in the assay with NCI-H226 lung, 2.76 µM; in the assay on KM12 colon, 2.29 µM; in the assay with SF-539 CNS it was 0.534 µM; in the assay with RPMI-8226 leukemia it was 4.39 µM. Further, the GI50 is 1.28 µM in the assay with MDA-MB-435, 1.53 µM in the assay with MALME-3M melanoma, 1.08 µM with HT29 colon and 0.389 µM in the assay on SK-OV-3 ovarian. The TGI in the assay with ACHN renal was 2.21 µM; in the assay with COLO 205 colon, 3.23 µM; in the assay with NCI-H226 lung it was 6.92 µM; with KM12 colon, 14.6 µM; in the assay with SF-539 CNS it was 1.98 µM; in the assay with RPMI-8226 leukemia, 31 µM. The TGI in the assay on MDA-MB-435 worked out at 2.69 µM; with MALME-3M melanoma, 3.72 µM; in the assay on HT29 colon it was 4.92 µM; with SK-OV-3 ovarian it was 12.8 µM.
